Results taken from patent publication US8541455B2, “Derivatives of 2-pyridin-2-yl-pyrazol-3(2H)-one, preparation and therapeutic use thereof as HIF activators” (Sanofi, priority 2008, dated 2013).
Structures can show the parent of a compound that is named as a salt.

SMILES	melting point [°C]
COC(=O)CC(c1cccnc1)c1c[nH]n(-c2ccc(S(=O)(=O)NC(C)(C)C)cn2)c1=O (stereo not drawn) (as salt: HCl) [Compound 154, methyl 3-(2-[5-(tert-butylsulfamoyl)pyridin-2-yl]-3-oxo-2,3-dihydro-1H-pyrazol-4-yl)-3-(pyridin-3-yl)propanoate]	146
COC(=O)c1ccc(-n2[nH]c(C)c(Cc3ccccc3Cl)c2=O)nc1 (as salt: HCl) [Compound 170]	258
Cc1[nH]n(-c2ccccn2)c(=O)c1Cc1ccncc1 (as salt: HCl) [Compound 176]	208
Cc1[nH]n(-c2ccccn2)c(=O)c1Cc1cccc(N(C)C)c1 (as salt: HCl) [Compound 190]	132
CC(C)(C)OC(=O)c1ccc(-n2[nH]cc(Cc3cccnc3)c2=O)nc1 (as salt: HCl) [Compound 202]	160
CCN(c1ccccc1)S(=O)(=O)c1ccc(-n2[nH]c(C)c(Cc3cccnc3)c2=O)nc1 (as salt: hydrochloride) [Compound 43]	128
CCN(c1ccccc1)S(=O)(=O)c1ccc(-n2[nH]c(C)c(Cc3cccc(OCCN(C)C)c3)c2=O)nc1 (as salt: hydrochloride) [Compound 56, 6-(4-{3-[2-(dimethylamino)ethoxy]benzyl}-3-methyl-5-oxo-2,5-dihydro-1H-pyrazol-1-yl)-N-ethyl-N-phenylpyridine-3-sulfonamide hydrochloride]	124
Cc1[nH]n(-c2ccc(S(=O)(=O)N(C(C)C)C(C)C)cn2)c(=O)c1Cc1ccc(Cl)cc1Cl [Compound 15]	226
CCN(c1ccccc1)S(=O)(=O)c1ccc(-n2[nH]c(C)c(Cc3ccc(OCCN(C)C)cc3)c2=O)nc1 [Compound 49]	178
CCN(c1ccccc1)S(=O)(=O)c1ccc(-n2[nH]c(C)c(Cc3ccc(N(C)C)cc3)c2=O)nc1 [Compound 50]	182
CCN(c1ccccc1)S(=O)(=O)c1ccc(-n2[nH]c(C)c(Cc3cccc(OC)c3)c2=O)nc1 [Compound 55]	146
CCN(c1ccccc1)S(=O)(=O)c1ccc(-n2[nH]c(C)c(Cc3ccccc3OC)c2=O)nc1 [Compound 57]	108
CCN(c1ccccc1)S(=O)(=O)c1ccc(-n2[nH]c(C)c(Cc3ccc(OCCOC)cc3)c2=O)nc1 [Compound 61]	176
Cc1[nH]n(-c2ccc(S(=O)(=O)N(C)C)cn2)c(=O)c1Cc1cccnc1 [Compound 66, N,N-dimethyl-6-[3-methyl-5-oxo-4-(pyridin-3-ylmethyl)-2,5-dihydro-1H-pyrazol-1-yl]pyridine-3-sulfonamide]	212
CCN(c1ccccc1)S(=O)(=O)c1ccc(-n2[nH]c(C)c(Cc3cccc(OC)n3)c2=O)nc1 [Compound 78]	174
CCN(c1ccccc1)S(=O)(=O)c1ccc(-n2[nH]c(C)c(Cc3cncc(OC)c3)c2=O)nc1 [Compound 86]	138
CCN(c1ccccc1)S(=O)(=O)c1ccc(-n2[nH]c(C)c(Cc3cncc(C#N)c3)c2=O)nc1 [Compound 97, 6-{4-[(5-cyanopyridin-3-yl)methyl]-3-methyl-5-oxo-2,5-dihydro-1H-pyrazol-1-yl}-N-ethyl-N-phenylpyridine-3-sulfonamide]	164
CC(C)(C)NS(=O)(=O)c1ccc(-n2[nH]cc(Cc3cccnc3)c2=O)nc1 [Compound 98A, N-tert-butyl-6-[5-oxo-4-(pyridin-3-ylmethyl)-2,5-dihydro-1H-pyrazol-1-yl]pyridine-3-sulfonamide]	220
CN(C(C)(C)C)S(=O)(=O)c1ccc(-n2[nH]cc(Cc3ccccc3)c2=O)nc1 [Compound 100]	186

SMILES	melting point [°C]
COc1cncc(Cc2c(C)[nH]n(-c3ccc(S(=O)(=O)N(C)C(C)(C)C)cn3)c2=O)c1 [Compound 102]	84
CCN(c1ccccc1)S(=O)(=O)c1ccc(-n2[nH]c(C)c(Cc3ccc(C#N)nc3)c2=O)nc1 [Compound 103]	120
CCN(c1ccccc1)S(=O)(=O)c1ccc(-n2[nH]cc(CC(=O)N(C)C)c2=O)nc1 [Compound 105]	168
CCOC(=O)Cc1[nH]n(-c2ccc(S(=O)(=O)N(CC)c3ccccc3)cn2)c(=O)c1Cc1ccccc1 [Compound 106, ethyl (4-benzyl-1-{5-[ethyl(phenyl)sulfamoyl]pyridin-2-yl}-5-oxo-2,5-dihydro-1H-pyrazol-3-yl)acetate]	156
CCN(c1ccccc1)S(=O)(=O)c1ccc(-n2[nH]c(CC(=O)N(C)C)c(Cc3ccccc3)c2=O)nc1 [Compound 109]	163
CCN(c1ccccc1)S(=O)(=O)c1ccc(-n2[nH]cc(CCC(=O)O)c2=O)nc1 [Compound 110]	214
CCN(c1ccccc1)S(=O)(=O)c1ccc(-n2[nH]c(C)c(Cc3cccc(C(=O)OC)c3)c2=O)nc1 [Compound 111]	172
CCN(c1ccccc1)S(=O)(=O)c1ccc(-n2[nH]cc(CCC(=O)OC)c2=O)nc1 [Compound 112]	128
COC(=O)C(c1ccccc1)c1c[nH]n(-c2ccc(S(=O)(=O)NC(C)(C)C)cn2)c1=O (stereo not drawn) [Compound 113, methyl {2-[5-(tert-butylsulfamoyl)pyridin-2-yl]-3-oxo-2,3-dihydro-1H-pyrazol-4-yl}(phenyl)acetate]	66
COC(=O)CC(c1ccccc1)c1c[nH]n(-c2ccc(S(=O)(=O)N(C)C3CCCC3)cn2)c1=O (stereo not drawn) [Compound 114]	80
CCN(c1ccccc1)S(=O)(=O)c1ccc(-n2[nH]c(C)c(Cc3ccccc3C(=O)OC)c2=O)nc1 [Compound 116]	146
CCN(c1ccccc1)S(=O)(=O)c1ccc(-n2[nH]cc(CC3CCCC3)c2=O)nc1 [Compound 134]	170
CN([C@@H]1CC[C@H](CO)C1)S(=O)(=O)c1ccc(-n2[nH]cc(Cc3ccccc3)c2=O)nc1 [Compound 138, 6-(4-benzyl-5-oxo-2,5-dihydro-1H-pyrazol-1-yl)-N-[(1R,3S)-3-(hydroxymethyl)cyclopentyl]-N-methylpyridine-3-sulfonamide]	108
O=c1c(Cc2ccccc2)c[nH]n1-c1ccc(S(=O)(=O)N(C[C@@H](O)CO)C2CCCC2)cn1 [Compound 142, 6-(4-benzyl-5-oxo-2,5-dihydro-1H-pyrazol-1-yl)-N-cyclopentyl-N-[(2R)-2,3-dihydroxypropyl]pyridine-3-sulfonamide]	184
O=c1c(Cc2ccccc2)c[nH]n1-c1ccc(S(=O)(=O)N(CC(O)CO)c2ccccc2)cn1 (stereo not drawn) [Compound 143, 6-(4-benzyl-5-oxo-2,5-dihydro-1H-pyrazol-1-yl)-N-(2,3-dihydroxypropyl)-N-phenylpyridine-3-sulfonamide]	174
CCC(C)(C)N(C)S(=O)(=O)c1ccc(-n2[nH]cc(Cc3cccnc3)c2=O)nc1 [Compound 145]	162
CN(C1CCCC1)S(=O)(=O)c1ccc(-n2[nH]cc(C(CC(=O)NCC(F)(F)F)c3ccccc3)c2=O)nc1 (stereo not drawn) [Compound 146, 3-(2-{5-[cyclopentyl(methyl)sulfamoyl]pyridin-2-yl}-3-oxo-2,3-dihydro-1H-pyrazol-4-yl)-3-phenyl-N-(2,2,2-trifluoroethyl)propanamide]	80
O=c1c(Cc2ccccc2)c[nH]n1-c1ccc(S(=O)(=O)N(CC(CO)CO)C2CCCC2)cn1 [Compound 147, 6-(4-benzyl-5-oxo-2,5-dihydro-1H-pyrazol-1-yl)-N-cyclopentyl-N-[3-hydroxy-2-(hydroxymethyl)propyl]pyridine-3-sulfonamide]	> 260
O=c1c(Cc2ccccc2)c[nH]n1-c1ccc(S(=O)(=O)N(C[C@H](O)CO)C2CCCC2)cn1 [Compound 148, 6-(4-benzyl-5-oxo-2,5-dihydro-1H-pyrazol-1-yl)-N-cyclopentyl-N-[(2S)-2,3-dihydroxypropyl]pyridine-3-sulfonamide]	184

SMILES	melting point [°C]
O=c1c(Cc2ccccc2)c[nH]n1-c1ccc(S(=O)(=O)N[C@H]2CCC[C@@H]2O)cn1 [Compound 149]	176
CC(C)(C)NS(=O)(=O)c1ccc(-n2[nH]cc(Cc3ccncc3)c2=O)nc1 [Compound 150]	226
CN(c1ccccc1)S(=O)(=O)c1ccc(-n2[nH]cc(Cc3ccccc3)c2=O)nc1 [Compound 153]	198
CCOC(=O)CC(c1ccccc1)c1c[nH]n(-c2ccc(S(=O)(=O)NC(C)(C)C)cn2)c1=O (stereo not drawn) [Compound 155]	130
O=c1c(Cc2ccccc2)c[nH]n1-c1ccc(S(=O)(=O)NCCO)cn1 [Compound 157]	180
COc1ccc(Cc2c(C)[nH]n(-c3ccc(S(=O)(=O)N(C)C(C)(C)C)cn3)c2=O)nc1 [Compound 160]	165
Cc1[nH]n(-c2ccccn2)c(=O)c1Cc1ccccc1C#N [Compound 172]	157
Cc1[nH]n(-c2ccccn2)c(=O)c1Cc1ccc(C#N)cc1 [Compound 173]	154
Cc1[nH]n(-c2ccccn2)c(=O)c1Cc1ccncc1 [Compound 175]	162
Cc1[nH]n(-c2ccccn2)c(=O)c1Cc1cccc(C#N)c1 [Compound 177]	90
COc1cc(Cc2c(C)[nH]n(-c3ccccn3)c2=O)cc(OC)c1 [Compound 179]	96
Cc1[nH]n(-c2ccccn2)c(=O)c1Cc1ccc(S(C)(=O)=O)cc1 [Compound 180]	144
COCCOc1cccc(Cc2c(C)[nH]n(-c3ccccn3)c2=O)c1 [Compound 181]	68
Cc1[nH]n(-c2ccccn2)c(=O)c1Cc1ccccc1 [Compound 182]	110
Cc1[nH]n(-c2ccccn2)c(=O)c1Cc1cccnc1 [Compound 183]	80
COc1ccc(OC)c(Cc2c(C)[nH]n(-c3ccccn3)c2=O)c1 [Compound 184]	62
Cc1[nH]n(-c2ccccn2)c(=O)c1Cc1cccc(C(F)(F)F)c1 [Compound 185]	78
Cc1[nH]n(-c2ccccn2)c(=O)c1Cc1ccc(C(F)(F)F)cc1 [Compound 186]	94
Cc1[nH]n(-c2ccccn2)c(=O)c1Cc1ccccc1C(F)(F)F [Compound 188]	106
